From EP0397567A1, “Antitumor substance, process for its preparation and pharmaceutical compositions containing it” (RHONE-POULENC SANTE, priority 1989, dated 1990)

Test: antitumor properties (studies mentioned, no method described)
Conditions: qualitative statement compared with girolline; no test system, dose or model printed

Compound | propriétés antitumorales
NC[C@H](Cl)[C@H](O)c1c[nH]c(N)n1 (racemic) [racémique érythro] | totalement inactifs
NC[C@@H](Cl)[C@H](O)c1c[nH]c(N)n1 (racemic) [racémique thréo, amino-3 (amino-2 1H-imidazolyl-4)-1 chloro-2 propanol-1-(1RS,2RS)] | conserve les propriétés antitumorales remarquables de la girolline
